# Reference: patent US5730968A, “Segmented chelating polymers as imaging and therapeutic agents” (Sterling Winthrop Inc., priority 1994, dated 1998)
# Test: blood pool retention time in rodents, against […]
# Format: in vivo
# Text: Retention time in the chart below is reported as the blood pool half life, T 1/2 (minutes) for half of the composition to be depleted from the blood pool.
smiles,measurement,value
CNC[C@H](O)[C@@H](O)[C@H](O)[C@H](O)CO.CNC[C@H](O)[C@@H](O)[C@H](O)[C@H](O)CO.O=C([O-])CN(CCN(CC(=O)[O-])CC(=O)O)CCN(CC(=O)[O-])CC(=O)O.[Gd+3] [Magnevist],"Blood Pool T1/2 (blood pool half life, for half of the composition to be depleted from the blood pool)",12 min
